Measured values: patent US20240398785A1, “SMALL MOLECULE DRUGS FOR THE INDUCTION OF TRAINED IMMUNITY” (THE UNIVERSITY OF CHICAGO, priority 2023, published 2024)
Counter-ions that a name gives are not always drawn. Like-named read-outs stand apart in the source and are kept apart here.

Experiments:
[1] = system: bone marrow-derived macrophages (BMDMs); assay: High-throughput trained immunity screening (TNF-α by HEK-Blue Quanti-Blue assay); settings: Mus musculus, BMDM, read-out: Fold Change (TNF-α production increase over untrained control)
Protocol: High-throughput trained immunity screening: Mature BMDMs were plated at 25,000 cells per well in 45 μL media in 384-well flat-bottomed plates using the Thermo Multidrop Combi liquid handler. Cells were rested overnight at 37° C. and 5% CO2. The following day, training compounds from the Microsource Spectrum Library were added at a volume of 45 nL using the PerkinElmer Janus G3 with Pintools for a final concentration of 1 μM. On day 2, supernatant was removed using the Janus, cells were washed with warm PBS using the Multidrop, and fresh media was added to the cells using the Multidrop. On day 5, cell density was quantified using the IncuCyte imager and software, then cells received media containing 25 ng/mL IFN-7 (BD Biosciences) for 24 hours. On day 6, cells were stimulated with 25 ng/mL Pam3-CSK4 (Invivogen). Supernatant was collected on day 6 and on day 7 following 24 hours of TLR stimulation, and it was stored at −80° C.
To measure TNF-α concentration in the supernatant, a high-throughput Quanti-Blue assay was used. HEK-Blue TNF-α cells (Invivogen) were plated at a density of 25,000 cells per well in 45 μL media (DMEM, 10% HIFBS). 5 μL of supernatant is added to each well using the Janus liquid handler, then the plates were incubated for 24 hours at 37° C. and 5% CO2. The following day, 20 μL of concentrated Quanti-Blue reagent was added to each well using the Combi liquid handler, and the plate was shaken for one minute. Then, the plate incubated at room temperature for 15 minutes before absorbance was measured at 628 nm using the BioTek Synergy NEO 2. All data is represented as a fold change relative to the average of the Pam3 only untrained control (n=20) on each plate.
An additional plate was seeded alongside the screen plates for a manual training assay and ELISA measurement of cytokine secretion to confirm that the BMDMs were behaving as expected. […] On Day 5, each well was imaged using an IncuCyte to quantify cell viability relative to the untrained controls.^20 Furthermore, the cells were checked to see if they maintained a resting phenotype before TLR stimulation by collecting and freezing the supernatant on Day 6 to measure TNF-α concentration after the assay was complete. Trained immunity effects are distinct from innate immune priming, so we checked that the cells maintained a resting phenotype before TLR stimulation by collecting and freezing the supernatant from each of the three screening replicates on Day 6 to measure TNF-α concentration after the assay was complete (FIG. 1F).
For each replicate of the screen, a modified version of the standard 7-day training assay was used.^18 TNF-α concentration was measured using a high throughput Quanti-Blue assay in HEK-Blue TNF-α cells. Concentration is proportional to absorbance measured at 628 nm within the range of the assay. 2,000 small molecules from the MicroSource Spectrum Library were screened.

[2] = system: bone marrow-derived macrophages (BMDMs); assay: In vitro trained immunity assay (ELISA, TLR agonist challenge); type: cell-based, mouse; settings: for IL-6 production following challenge: 100 ng/mL Pam3
Protocol: FIG. 2H is a graph showing TNF-α concentration from BMDMs trained with PBS or hydrocortisone at a concentration of 10 μM followed by challenge with 100 nanograms per milliliter (ng/mL) lipopolysaccharide (LPS) or Pam3 (n=30). […] FIG. 2I is a graph showing TNF-α or interleukin-6 (IL-6) concentration from BMDMs treated with 10 μM hit compounds one hour (hr) prior to 24 hr stimulation with 100 ng/mL Pam3 (n=6). […] All values are expressed as mean±SEM, and statistics were conducted using 1-way ANOVA with Dunnett's multiple comparisons test (significance compared with untrained group). *P<0.05, **P<0.01, ***P<0.001, ****P<0.0001, n.s., not significant.
TNF-α (FIG. 13D) and IL-6 (FIG. 13E) were measured from BMDM cell culture supernatant 24 h following treatment with small molecules or β-glucan.
In vitro trained immunity assay: Mature BMDMs were plated at 10^5 cells per well in 200 L media in 96-well flat-bottomed plates and rested overnight at 37° C. and 5% CO2. The following day, training molecules were added at specified concentrations and incubated for 24 hours. After training, cells were washed with warm PBS and rested for 3 days in fresh media. On day 5, cells received fresh media containing 25 ng/mL IFN-7 (BD Biosciences) for 24 hours. On day 6, cells were stimulated with 100 ng/mL Pam3CSK4 (Invivogen). Cell supernatant was collected 24 hours after stimulation. Supernatants were measured for IL-6 and TNF-α concentrations using ELISA MAX Deluxe kits (BioLegend) according to manufacturer's instructions.
To select an optimal concentration and agonist pairing, a series of ELISAs were performed to validate the training effects.

[3] = system: bone marrow-derived macrophages (BMDMs); assay: Chemical inhibition of training (MTA, EGCG, 2DG pre-treatment); type: cell-based, mouse
Protocol: FIG. 3D is a graph of a glycolysis inhibition assay using 1 mM 2DG and measuring TNF-α concentration following Pam3 challenge in cells trained with 10 μM hydrocortisone after 1 h of pre-treatment with PBS or 2DG (n=15). FIGS. 3E-3I are graphs of TNF-α concentration following Pam3 challenge in cells trained with M 5-Fluoroindole-2-Carboxylic Acid (FIG. 3E), Myricetin (FIG. 3F), Nerol (FIG. 3G), Hydroquinone (FIG. 3H), or Fenoterol hydrobromide (FIG. 3I) after pre-treatment with PBS or glycolysis inhibitor, 2DG (n=15). […] All values are expressed as mean±SEM, and statistics were conducted using 2-way ANOVA with Sidak's multiple comparisons test (significance compared with untrained group). *P<0.05, **P<0.01, ***P<0.001, ****P<0.0001, n.s., not significant.
For inhibition studies, BMDMs received inhibitors at specified concentrations 1 h prior to stimulation with training molecules, and inhibitors were present for the entire 24 h training period. […] To test metabolic pathway involvement, cells were pretreated with 1 mM 2′ deoxy-D-glucose.
Upregulation of glycolysis is commonly implicated as one of the underlying mechanisms in the induction of trained immunity.

[4] = system: peritoneal cells; assay: Peritoneal lavage spectral flow cytometry 2 h after LPS challenge; type: in vivo, mouse
Protocol: FIG. 4A is a schematic drawing showing a method of screening small molecule inducers of trained immunity in vivo. Mice were injected intraperitoneally (i.p.) with small molecules or vehicle control on days 0, 2, and 4. Mice were challenged with 1 μg lipopolysaccharide (LPS) on day 11 and then bled 1 hour (h) later. […] All values are expressed as mean±SEM, and statistics were conducted using 1-way ANOVA or 2-way ANOVA with multiple comparisons (significance compared with untrained group). *P<0.05, **P<0.01, ***P<0.001, ****P<0.0001, n.s., not significant. All values are expressed as mean±SEM, and statistics were conducted using 1-way ANOVA with two-stage linear step-up procedure (significance compared with untrained group). *P<0.05, **P<0.01, ***P<0.001, ****P<0.0001, n.s., not significant.
To determine which cells were involved, mice were given training injections and challenged as previously described. Then, 2 h after challenge, the mice were sacrificed, and peritoneal cells were collected by lavage. The cells were fixed and stained for intracellular TNF-α and IL-6 and surface costimulatory markers, CD40, CD86, and MHCII. Lineage markers were included for innate immune cells, including neutrophils, eosinophils, monocytes, macrophages, and dendritic cells. The stained cells were then analyzed via spectral flow cytometry.
The activation of these cells and changes to co-stimulatory molecules were then investigated.

[5] = glycolysis inhibitor 2-deoxy-D-glucose 1 mM
[6] = peritoneal lavage, 2 h after challenge

## CC1(C)C(C(Cl)Cl)C2(Cl)C(Cl)C(Cl)C1(Cl)C2(Cl)Cl (centres unmarked) [Toxaphene]
[1]
  fold induction at 1 µM: 1.63

## CC(=O)OCC(=O)[C@@]1(O)CC[C@H]2[C@@H]3CCC4=CC(=O)CC[C@]4(C)[C@H]3[C@@H](O)C[C@@]21C [Hydrocortisone acetate]
[1]
  fold induction at 1 µM: 1.68

## C[C@]12CCC(=O)C=C1CC[C@@H]1[C@@H]2[C@@H](O)C[C@@]2(C)[C@H]1CC[C@]2(O)C(=O)CO [Hydrocortisone]
[2]
  IL-6 production following challenge: increased production of IL-6
[2]; 10 μM, challenge 100 ng/mL LPS or Pam3, n=30
  TNF-α training effect with TLR4 and TLR1/2 agonists: Training effects were observed
[1]
  fold induction at 1 µM: 1.78
[3]; [5]
  training (TNF-α after Pam3) after 2DG pre-treatment: significant inhibition of training

## NC(CO)C(=O)NNCc1ccc(O)c(O)c1O (centres unmarked) [Benserazide hydrochloride]
[1]
  fold induction at 1 µM: 1.61

## CC1(C)O[C@@H]2C[C@H]3[C@@H]4CCC5=CC(=O)CC[C@]5(C)[C@@]4(F)[C@@H](O)C[C@]3(C)[C@]2(C(=O)CCl)O1 [Halcinonide]
[1]
  fold induction at 1 µM: 2.7

## CCC(=O)O[C@]1(C(=O)CCl)[C@@H](C)C[C@H]2[C@@H]3CCC4=CC(=O)C=C[C@]4(C)[C@@]3(F)[C@@H](O)C[C@@]21C [Clobetasol propionate]
[1]
  fold induction at 1 µM: 2.07

## Cc1cc2cc3c(C)cc(=O)oc3c(C)c2o1 [Trioxsalen]
[1]
  fold induction at 1 µM: 1.66

## CC1(C)O[C@@H]2C[C@H]3[C@@H]4C[C@H](F)C5=CC(=O)C=C[C@]5(C)[C@H]4[C@@H](O)C[C@]3(C)[C@]2(C(=O)CO)O1 [Flunisolide]
[4]; 2 h after challenge
  cell count in the peritoneal lavage: increased cell count
[4]; peritoneal lavage
  CD86 on eosinophils and small peritoneal macrophages (MFI of CD86+ cells): increased amount
  MFI of MHCII+ SPMs: increased
[4]; [6]
  number of TNF-α+ and IL-6+ eosinophils: significant increases
[1]
  fold induction at 1 µM: 2.49
[3]; [5]
  training (TNF-α after Pam3) after 2DG pre-treatment: significant inhibition of training
[3]; histone acetyltransferase inhibitor EGCG 15 μM, 10 μM compound
  training (TNF-α after Pam3) after EGCG pre-treatment: slightly reduce training though statistical significance was not achieved
[3]; methyltransferase inhibitor MTA 500 μM, 10 μM compound
  training (TNF-α after Pam3) after MTA pre-treatment: significant inhibition of training

## CC(=O)N[C@@H](CC(=O)O)C(=O)O [N-Acetylaspartic acid]
[1]
  fold induction at 1 µM: 1.6

## Oc1ccc(Cl)cc1Cc1cc(Cl)ccc1O [Dichlorophene]
[1]
  fold induction at 1 µM: 1.61

## CC(Cc1ccc(O)cc1)NCC(O)c1cc(O)cc(O)c1 (centres unmarked) [Fenoterol hydrobromide]
[1]
  fold induction at 1 µM: 1.62
[3]; [5]
  training (TNF-α after Pam3) after 2DG pre-treatment: not susceptible to suppression of training

## N#Cc1c(Cl)c(Cl)c(Cl)c(C#N)c1Cl [Tetrachloroisophthalonitrile]
[1]
  fold induction at 1 µM: 1.61

## O=C(O)c1cc2cc(F)ccc2[nH]1 [5-Fluoroindole-2-carboxylic acid]
[1]
  fold induction at 1 µM: 2.47
[3]
  training (TNF-α after Pam3) after 2DG pre-treatment: not susceptible to suppression of training

## CC1(C)O[C@@H]2C[C@H]3[C@@H]4C[C@H](F)C5=CC(=O)C=C[C@]5(C)[C@@]4(F)[C@@H](O)C[C@]3(C)[C@]2(C(=O)CO)O1 [Fluocinolone acetonide]
[1]
  fold induction at 1 µM: 2.28

## COc1ccc(OC)c(C(O)C(C)N)c1 (centres unmarked) [Methoxamine hydrochloride]
[1]
  fold induction at 1 µM: 2.21

## O=c1[nH]c(=O)n([C@H]2C[C@H](O)[C@@H](CO)O2)cc1F [Floxuridine]
[1]
  fold induction at 1 µM: 1.6

## Cc1cc(CC(=O)O)n(C)c1C(=O)c1ccc(Cl)cc1 [Zomepirac Sodium]
[1]
  fold induction at 1 µM: 1.7

## CC(=O)OCC(=O)[C@@]1(O)[C@H](OC(C)=O)C[C@H]2[C@@H]3CCC4=CC(=O)C=C[C@]4(C)[C@@]3(F)[C@@H](O)C[C@@]21C [Triamcinolone diacetate]
[1]
  fold induction at 1 µM: 1.73

## CC(=O)OCC(=O)[C@@]12OC(C)(C)O[C@@H]1C[C@H]1[C@@H]3C[C@H](F)C4=CC(=O)C=C[C@]4(C)[C@@]3(F)[C@@H](O)C[C@@]12C [Fluocinonide]
[1]
  fold induction at 1 µM: 2.29

## Oc1ccc(O)cc1 [Hydroquinone]
[4]; [6]
  cytokine MFIs among TNF-α+ neutrophils and IL-6+ eosinophils: significant increases
  number of TNF-α+ and IL-6+ cells: no increase
[1]
  fold induction at 1 µM: 1.68
[3]; [5]
  training (TNF-α after Pam3) after 2DG pre-treatment: not susceptible to suppression of training

## NC(=O)N/N=C/c1ccc([N+](=O)[O-])o1 [Nitrofurazone]
[1]
  fold induction at 1 µM: 1.69

## C[C@]12C=CC(=O)C=C1CC[C@@H]1[C@@H]2[C@@H](O)C[C@@]2(C)[C@H]1CC[C@]2(O)C(=O)CO [Prednisolone]
[1]
  fold induction at 1 µM: 2.06

## O=c1c(O)c(-c2cc(O)c(O)c(O)c2)oc2cc(O)cc(O)c12 [Myricetin]
[2]
  IL-6 production following challenge: increased production of IL-6
[4]; 2 h after challenge
  cell count in the peritoneal lavage: increased cell count
[4]; [6]
  number of TNF-α+ and IL-6+ eosinophils: significant increases
[1]
  fold induction at 1 µM: 2.19
[3]; [5]
  training (TNF-α after Pam3) after 2DG pre-treatment: not susceptible to suppression of training

## CN1CCCN=C1COC(=O)C(O)(c1ccccc1)C1CCCCC1 (centres unmarked) [Oxyphencyclimine hydrochloride]
[1]
  fold induction at 1 µM: 1.67

## CC(C)=CCC/C(C)=C\CO [Nerol]
[1]
  fold induction at 1 µM: 1.73
[3]; [5]
  training (TNF-α after Pam3) after 2DG pre-treatment: not susceptible to suppression of training

## CCCC1O[C@@H]2C[C@H]3[C@@H]4CCC5=CC(=O)C=C[C@]5(C)[C@H]4[C@@H](O)C[C@]3(C)[C@]2(C(=O)CO)O1 (some centres unmarked) [Budesonide]
[1]
  fold induction at 1 µM: 2.69

## C=C1CCC2C(CC2(C)C)C(=O)CCC1O (centres unmarked) [Isokobusone]
[1]
  fold induction at 1 µM: 1.66

## C[C@]12C=CC(=O)C=C1CC[C@H]1[C@@H]3C[C@@H](O)[C@](O)(C(=O)CO)[C@@]3(C)C[C@H](O)[C@@]12F [Triamcinolone]
[1]
  fold induction at 1 µM: 1.76

## CCC(C)(C)C(=O)O[C@H]1C[C@@H](C)C=C2C=C[C@H](C)[C@H](CC[C@@H]3C[C@@H](O)CC(=O)O3)[C@H]21 [Simvastatin]
[1]
  fold induction at 1 µM: 1.61

## CC(C)[C@H]1CC[C@H](C(=O)N[C@H](Cc2ccccc2)C(=O)O)CC1 [Nateglinide]
[1]
  fold induction at 1 µM: 1.6
